Results from ChEMBL document CHEMBL5715956, “Selective Targeting of Bromodomains of the Bromodomain-PHD Fingers Family Impairs Osteoclast Differentiation” (ACS Chem Biol, 2017).

Legend:
[1] = target: Protein polybromo-1 (Homo sapiens) (UniProt Q86U86); details: dose 10.0 µM
[2] = target: T1, Adrenergic receptor alpha-2 (Homo sapiens) (UniProt P08913+P18825+P18089); experiment: Inhibition of Alpha 2 receptor (unknown origin) at 10 uM relative to control; format: protein assay
[3] = target: T1, Adrenergic receptor alpha-2 (Homo sapiens); experiment: Binding affinity to Alpha 2 receptor (unknown origin) assessed as specific binding at 10 uM relative to control; format: protein assay
[4] = target: Bromodomain-containing protein 3 (Homo sapiens) (UniProt Q15059); details: dose 10.0 µM
[5] = target: T2, Bromodomain and PHD finger-containing protein 3 (Homo sapiens) (UniProt Q9ULD4); experiment: Binding affinity to BRPF3 (unknown origin) assessed as change in entropy TdeltaS at 12 uM by Isothermal titration calorimetry
T2 sequence (whole entry): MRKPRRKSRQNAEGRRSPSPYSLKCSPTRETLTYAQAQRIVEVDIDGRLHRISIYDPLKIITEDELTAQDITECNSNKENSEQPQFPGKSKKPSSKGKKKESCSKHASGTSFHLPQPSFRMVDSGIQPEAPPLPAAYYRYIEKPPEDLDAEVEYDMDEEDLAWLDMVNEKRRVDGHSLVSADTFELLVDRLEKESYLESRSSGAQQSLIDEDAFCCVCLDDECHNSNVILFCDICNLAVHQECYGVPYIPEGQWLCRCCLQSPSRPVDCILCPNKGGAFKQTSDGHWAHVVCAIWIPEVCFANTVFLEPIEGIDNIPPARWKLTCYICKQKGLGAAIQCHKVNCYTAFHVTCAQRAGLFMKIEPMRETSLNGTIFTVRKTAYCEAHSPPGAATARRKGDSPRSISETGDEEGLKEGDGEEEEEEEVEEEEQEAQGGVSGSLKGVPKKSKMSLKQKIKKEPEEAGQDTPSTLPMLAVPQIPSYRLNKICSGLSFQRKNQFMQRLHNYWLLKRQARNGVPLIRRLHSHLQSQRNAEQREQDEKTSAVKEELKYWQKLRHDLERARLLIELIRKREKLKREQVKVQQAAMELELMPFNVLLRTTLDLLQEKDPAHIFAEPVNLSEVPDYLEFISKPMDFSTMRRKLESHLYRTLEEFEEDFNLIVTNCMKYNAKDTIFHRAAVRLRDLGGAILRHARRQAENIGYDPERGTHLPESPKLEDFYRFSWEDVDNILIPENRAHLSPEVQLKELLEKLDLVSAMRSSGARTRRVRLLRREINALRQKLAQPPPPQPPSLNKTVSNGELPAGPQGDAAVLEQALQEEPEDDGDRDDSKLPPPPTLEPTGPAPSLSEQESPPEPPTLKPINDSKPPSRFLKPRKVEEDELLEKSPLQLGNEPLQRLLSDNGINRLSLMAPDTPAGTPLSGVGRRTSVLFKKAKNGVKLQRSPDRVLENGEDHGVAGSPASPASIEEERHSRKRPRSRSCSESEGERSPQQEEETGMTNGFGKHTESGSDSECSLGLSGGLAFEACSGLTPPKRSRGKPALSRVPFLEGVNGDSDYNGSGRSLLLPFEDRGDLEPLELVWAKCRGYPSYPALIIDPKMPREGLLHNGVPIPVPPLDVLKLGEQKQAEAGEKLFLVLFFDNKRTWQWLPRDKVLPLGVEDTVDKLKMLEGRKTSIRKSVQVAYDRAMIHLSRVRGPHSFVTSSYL

[6] = target: 5-hydroxytryptamine receptor 7 (Homo sapiens) (UniProt P34969); experiment: Inhibition of 5HT7 (unknown origin) at 10 uM relative to control
[7] = target: Histone acetyltransferase p300 (Homo sapiens) (UniProt Q09472); details: dose 10.0 µM
[8] = target: KV channel (voltage-gated potassium channel family) (Homo sapiens, UniProt O43525+O43526+O95259+P16389+P17658+P22001+P22459+P22460+P48547+P51787+P56696+Q03721+Q09470+Q12809+Q14003+Q14721+Q16322+Q6PIU1+Q8NCM2+Q8TAE7+Q8TDN1+Q8TDN2+Q92953+Q96KK3+Q96L42+Q96PR1+Q96RP8+Q9BQ31+Q9H252+Q9H3M0+Q9NR82+Q9NS40+Q9NSA2+Q9NZV8+Q9UIX4+Q9UJ96+Q9UK17+Q9ULD8+Q9ULS6+Q9UQ05); experiment: Inhibition of KV channel (unknown origin) at 10 uM relative to control; format: protein assay
[9] = target: Bromodomain-containing protein 4 (Homo sapiens) (UniProt O60885); experiment: Binding affinity to BRD4 BD1 (unknown origin) assessed as change in entropy TdeltaS at 14 uM by Isothermal titration calorimetry
[10] = target: Transcription intermediary factor 1-alpha (Homo sapiens) (UniProt O15164); details: dose 10.0 µM
[11] = target: Histamine H1 receptor (Homo sapiens) (UniProt P35367); experiment: Binding affinity to H1 receptor (unknown origin) assessed as specific binding at 10 uM relative to control
Sequence of Histamine H1 receptor (Homo sapiens) (P35367 whole entry): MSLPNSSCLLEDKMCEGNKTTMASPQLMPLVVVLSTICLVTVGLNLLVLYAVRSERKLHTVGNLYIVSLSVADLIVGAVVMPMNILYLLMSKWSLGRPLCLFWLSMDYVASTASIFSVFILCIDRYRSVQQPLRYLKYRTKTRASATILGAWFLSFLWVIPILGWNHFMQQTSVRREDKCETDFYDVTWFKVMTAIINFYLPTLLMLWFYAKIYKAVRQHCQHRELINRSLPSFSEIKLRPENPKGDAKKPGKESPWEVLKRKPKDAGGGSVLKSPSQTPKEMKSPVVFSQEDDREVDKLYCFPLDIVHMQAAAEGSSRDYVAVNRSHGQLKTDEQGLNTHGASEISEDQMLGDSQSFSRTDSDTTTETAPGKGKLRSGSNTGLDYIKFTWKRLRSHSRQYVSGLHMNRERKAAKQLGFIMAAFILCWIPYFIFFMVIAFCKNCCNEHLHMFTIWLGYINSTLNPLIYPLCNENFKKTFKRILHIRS

Sequence of Transcription intermediary factor 1-alpha (Homo sapiens) (O15164 whole entry): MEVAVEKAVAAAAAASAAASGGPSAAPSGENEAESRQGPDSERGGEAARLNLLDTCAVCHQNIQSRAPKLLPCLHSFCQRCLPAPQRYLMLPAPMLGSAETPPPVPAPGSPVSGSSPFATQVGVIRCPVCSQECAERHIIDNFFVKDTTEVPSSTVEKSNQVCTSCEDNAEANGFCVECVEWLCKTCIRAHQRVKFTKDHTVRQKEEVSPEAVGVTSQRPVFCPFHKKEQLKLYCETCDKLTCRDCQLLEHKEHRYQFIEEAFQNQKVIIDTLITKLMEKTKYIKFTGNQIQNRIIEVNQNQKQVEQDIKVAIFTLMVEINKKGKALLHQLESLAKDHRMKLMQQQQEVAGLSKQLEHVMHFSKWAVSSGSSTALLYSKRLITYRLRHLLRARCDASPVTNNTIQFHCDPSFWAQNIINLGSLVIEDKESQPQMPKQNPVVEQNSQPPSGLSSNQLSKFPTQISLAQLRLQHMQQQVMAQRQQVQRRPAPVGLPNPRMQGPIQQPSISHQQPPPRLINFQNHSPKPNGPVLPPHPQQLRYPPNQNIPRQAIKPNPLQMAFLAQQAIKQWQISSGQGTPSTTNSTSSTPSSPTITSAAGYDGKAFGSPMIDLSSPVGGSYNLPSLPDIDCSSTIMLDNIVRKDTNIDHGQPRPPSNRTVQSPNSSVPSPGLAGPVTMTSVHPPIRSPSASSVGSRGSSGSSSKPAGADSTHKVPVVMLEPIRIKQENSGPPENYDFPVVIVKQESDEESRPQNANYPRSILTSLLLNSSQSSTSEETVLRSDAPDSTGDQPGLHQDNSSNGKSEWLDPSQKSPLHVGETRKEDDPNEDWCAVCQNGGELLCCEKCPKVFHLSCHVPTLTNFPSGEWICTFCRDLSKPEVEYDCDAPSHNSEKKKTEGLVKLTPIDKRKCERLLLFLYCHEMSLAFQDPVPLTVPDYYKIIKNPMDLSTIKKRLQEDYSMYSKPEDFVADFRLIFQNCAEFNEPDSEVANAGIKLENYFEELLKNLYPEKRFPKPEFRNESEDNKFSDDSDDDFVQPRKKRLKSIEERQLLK
Sequence of Protein polybromo-1 (Homo sapiens) (Q86U86 whole entry): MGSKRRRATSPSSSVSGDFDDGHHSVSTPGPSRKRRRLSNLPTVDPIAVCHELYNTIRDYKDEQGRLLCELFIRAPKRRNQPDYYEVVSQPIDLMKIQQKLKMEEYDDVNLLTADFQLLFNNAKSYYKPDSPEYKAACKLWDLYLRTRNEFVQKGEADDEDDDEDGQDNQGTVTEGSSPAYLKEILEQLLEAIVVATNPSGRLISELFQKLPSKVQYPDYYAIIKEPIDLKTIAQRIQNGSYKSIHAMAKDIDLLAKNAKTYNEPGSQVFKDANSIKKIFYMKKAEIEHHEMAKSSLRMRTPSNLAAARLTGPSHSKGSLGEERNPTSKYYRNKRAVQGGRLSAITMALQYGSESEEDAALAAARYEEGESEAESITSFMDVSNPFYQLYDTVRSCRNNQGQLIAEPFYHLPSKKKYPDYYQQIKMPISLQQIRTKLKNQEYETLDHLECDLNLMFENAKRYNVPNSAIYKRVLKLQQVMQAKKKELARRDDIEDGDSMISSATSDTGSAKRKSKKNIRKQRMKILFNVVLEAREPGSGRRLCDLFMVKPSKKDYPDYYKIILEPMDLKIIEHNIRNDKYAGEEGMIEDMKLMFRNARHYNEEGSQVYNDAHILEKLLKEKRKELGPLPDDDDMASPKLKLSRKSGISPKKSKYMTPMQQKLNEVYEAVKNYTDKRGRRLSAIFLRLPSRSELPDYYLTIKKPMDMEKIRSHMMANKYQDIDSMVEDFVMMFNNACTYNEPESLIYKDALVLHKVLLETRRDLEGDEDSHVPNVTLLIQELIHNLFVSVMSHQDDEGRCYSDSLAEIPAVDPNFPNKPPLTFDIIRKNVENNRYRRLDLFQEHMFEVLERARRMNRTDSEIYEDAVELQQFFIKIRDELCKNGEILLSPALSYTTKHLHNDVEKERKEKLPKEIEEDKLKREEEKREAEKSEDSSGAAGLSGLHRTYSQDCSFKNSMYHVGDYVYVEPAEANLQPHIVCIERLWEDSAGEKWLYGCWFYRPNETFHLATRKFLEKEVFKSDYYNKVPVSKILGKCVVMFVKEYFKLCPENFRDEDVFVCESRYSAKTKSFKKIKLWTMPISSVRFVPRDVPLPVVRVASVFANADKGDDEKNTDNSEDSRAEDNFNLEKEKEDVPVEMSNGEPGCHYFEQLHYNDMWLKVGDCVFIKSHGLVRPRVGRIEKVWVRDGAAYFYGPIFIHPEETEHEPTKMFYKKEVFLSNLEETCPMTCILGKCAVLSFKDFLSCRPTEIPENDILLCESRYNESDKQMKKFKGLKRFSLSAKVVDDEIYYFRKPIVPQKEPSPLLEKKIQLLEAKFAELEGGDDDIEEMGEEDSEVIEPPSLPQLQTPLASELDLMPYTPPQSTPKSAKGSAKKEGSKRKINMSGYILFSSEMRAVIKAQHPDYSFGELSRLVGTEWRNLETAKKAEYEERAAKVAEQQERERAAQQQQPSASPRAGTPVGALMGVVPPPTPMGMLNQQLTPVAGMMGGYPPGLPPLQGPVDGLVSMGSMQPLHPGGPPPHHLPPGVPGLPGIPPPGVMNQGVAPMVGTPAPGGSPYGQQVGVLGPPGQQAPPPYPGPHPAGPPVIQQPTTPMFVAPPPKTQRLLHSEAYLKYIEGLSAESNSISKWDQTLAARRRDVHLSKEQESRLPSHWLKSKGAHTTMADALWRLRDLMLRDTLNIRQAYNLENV
Sequence of 5-hydroxytryptamine receptor 7 (Homo sapiens) (P34969 whole entry): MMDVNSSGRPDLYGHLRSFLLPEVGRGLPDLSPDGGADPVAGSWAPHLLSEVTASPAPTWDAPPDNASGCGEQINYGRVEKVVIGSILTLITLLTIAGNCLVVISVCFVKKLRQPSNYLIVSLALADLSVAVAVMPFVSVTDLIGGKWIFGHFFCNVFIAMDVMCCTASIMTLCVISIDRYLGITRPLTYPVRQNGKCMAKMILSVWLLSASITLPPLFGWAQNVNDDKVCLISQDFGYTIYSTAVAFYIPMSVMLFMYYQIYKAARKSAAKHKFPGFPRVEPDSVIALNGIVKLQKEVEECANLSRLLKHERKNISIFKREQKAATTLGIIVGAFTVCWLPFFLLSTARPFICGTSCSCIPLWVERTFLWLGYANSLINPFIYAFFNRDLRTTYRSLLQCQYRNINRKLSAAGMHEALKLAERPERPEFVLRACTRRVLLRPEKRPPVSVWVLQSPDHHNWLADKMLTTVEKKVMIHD
Sequence of Bromodomain-containing protein 3 (Homo sapiens) (Q15059 2-726 limits assumed): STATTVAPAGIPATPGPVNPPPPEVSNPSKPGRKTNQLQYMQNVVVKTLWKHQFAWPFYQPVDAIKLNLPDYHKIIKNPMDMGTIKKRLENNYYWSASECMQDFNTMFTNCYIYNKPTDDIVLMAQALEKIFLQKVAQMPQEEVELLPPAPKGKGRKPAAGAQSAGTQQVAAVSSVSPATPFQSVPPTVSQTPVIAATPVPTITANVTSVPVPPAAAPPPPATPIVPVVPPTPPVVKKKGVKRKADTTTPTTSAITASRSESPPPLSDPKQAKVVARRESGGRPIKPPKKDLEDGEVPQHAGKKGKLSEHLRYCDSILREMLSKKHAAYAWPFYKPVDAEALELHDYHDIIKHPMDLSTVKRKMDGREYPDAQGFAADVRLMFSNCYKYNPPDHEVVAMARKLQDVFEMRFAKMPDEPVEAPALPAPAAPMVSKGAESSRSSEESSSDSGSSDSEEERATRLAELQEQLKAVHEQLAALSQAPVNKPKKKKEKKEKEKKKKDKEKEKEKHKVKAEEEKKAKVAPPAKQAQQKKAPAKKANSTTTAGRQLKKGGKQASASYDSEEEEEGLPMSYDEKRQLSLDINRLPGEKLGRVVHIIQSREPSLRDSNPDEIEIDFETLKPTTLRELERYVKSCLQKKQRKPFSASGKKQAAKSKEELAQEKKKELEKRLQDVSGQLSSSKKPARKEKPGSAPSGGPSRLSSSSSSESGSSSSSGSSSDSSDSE

## COc1cc2c(cc1NS(=O)(=O)c1ccc(Br)cc1C)n(C)c(=O)n2C
[1]
  ΔTm: 0.2 °C
[2]
  inhibition: -3%
[3]
  Activity: 112%
[4]
  ΔTm: 1.6 °C
[5]
  TdeltaS: 0.427 kcal/mol
[6]
  inhibition: 2%
[7]
  ΔTm: 0.7 °C
[8]
  inhibition at 10 µM: -18%
[9]
  TdeltaS: 0.198 kcal/mol
[10]
  ΔTm: 1.8 °C
[11]
  Activity: 96.8%
